Laboratory results taken from patent US9815839B2, “N-(1-(substituted-phenyl)ethyl)-9H-purin-6-amines as PI3K inhibitors” (Incyte Corporation, priority 2010, dated 2017).
Counter-ions that a name gives are not always drawn.

How the values were obtained:
[1] = test system: Pfeiffer cell line (diffuse large B cell lymphoma); assay: Pfeiffer cell proliferation assay; type: cell-based; settings: Homo sapiens, Pfeiffer, Pfeiffer cells, 3-4 days plus 12 hours [3H]-thymidine incorporation
In short: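 Pfeiffer DLBCL cells grown in RPMI/10% FBS at 2×10^3 cells/well in ultra-low-binding plates with a range of compound concentrations for 3-4 days. [3H]-thymidine (1 μCi/well) was then added for 12 h more. Incorporation was read by filtration and scintillation counting.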

PI3Kδ (p110δ/p85α) = molecular target: T1, PI3Kδ (p110δ/p85α) (Homo sapiens, UniProt O00329); assay: PI3Kδ scintillation proximity assay; type: biochemical; settings: 20 μM ATP, 4 nM PI3Kδ
T1 construct: purchased Millipore (Bedford, Mass.)
T1 sequence (O00329 whole entry, species assumed): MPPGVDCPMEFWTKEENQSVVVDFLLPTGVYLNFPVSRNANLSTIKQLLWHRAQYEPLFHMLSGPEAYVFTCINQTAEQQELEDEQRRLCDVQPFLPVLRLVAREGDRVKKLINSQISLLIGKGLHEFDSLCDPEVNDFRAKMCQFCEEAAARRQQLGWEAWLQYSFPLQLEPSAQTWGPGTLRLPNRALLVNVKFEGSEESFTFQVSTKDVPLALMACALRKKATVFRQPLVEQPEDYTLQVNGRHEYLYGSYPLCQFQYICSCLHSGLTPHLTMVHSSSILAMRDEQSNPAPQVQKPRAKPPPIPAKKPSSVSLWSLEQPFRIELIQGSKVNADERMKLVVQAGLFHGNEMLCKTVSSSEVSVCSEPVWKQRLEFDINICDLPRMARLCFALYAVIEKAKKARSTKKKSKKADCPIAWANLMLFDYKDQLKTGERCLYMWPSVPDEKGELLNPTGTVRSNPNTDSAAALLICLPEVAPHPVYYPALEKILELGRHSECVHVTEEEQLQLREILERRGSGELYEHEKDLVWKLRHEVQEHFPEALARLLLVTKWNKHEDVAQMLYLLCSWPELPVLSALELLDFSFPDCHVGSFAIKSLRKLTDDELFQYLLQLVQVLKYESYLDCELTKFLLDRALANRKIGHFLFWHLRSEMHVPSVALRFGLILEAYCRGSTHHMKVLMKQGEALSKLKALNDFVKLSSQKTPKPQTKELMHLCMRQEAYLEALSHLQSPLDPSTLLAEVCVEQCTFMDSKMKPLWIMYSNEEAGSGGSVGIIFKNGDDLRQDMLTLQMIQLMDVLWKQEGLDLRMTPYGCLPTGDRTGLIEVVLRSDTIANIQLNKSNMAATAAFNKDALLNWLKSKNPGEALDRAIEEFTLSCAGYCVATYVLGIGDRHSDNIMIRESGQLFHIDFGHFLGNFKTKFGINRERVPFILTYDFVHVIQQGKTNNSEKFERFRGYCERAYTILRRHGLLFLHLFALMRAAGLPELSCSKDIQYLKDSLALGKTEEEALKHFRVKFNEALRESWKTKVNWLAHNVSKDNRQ
T1 sequence (P27986 whole entry partner, species assumed): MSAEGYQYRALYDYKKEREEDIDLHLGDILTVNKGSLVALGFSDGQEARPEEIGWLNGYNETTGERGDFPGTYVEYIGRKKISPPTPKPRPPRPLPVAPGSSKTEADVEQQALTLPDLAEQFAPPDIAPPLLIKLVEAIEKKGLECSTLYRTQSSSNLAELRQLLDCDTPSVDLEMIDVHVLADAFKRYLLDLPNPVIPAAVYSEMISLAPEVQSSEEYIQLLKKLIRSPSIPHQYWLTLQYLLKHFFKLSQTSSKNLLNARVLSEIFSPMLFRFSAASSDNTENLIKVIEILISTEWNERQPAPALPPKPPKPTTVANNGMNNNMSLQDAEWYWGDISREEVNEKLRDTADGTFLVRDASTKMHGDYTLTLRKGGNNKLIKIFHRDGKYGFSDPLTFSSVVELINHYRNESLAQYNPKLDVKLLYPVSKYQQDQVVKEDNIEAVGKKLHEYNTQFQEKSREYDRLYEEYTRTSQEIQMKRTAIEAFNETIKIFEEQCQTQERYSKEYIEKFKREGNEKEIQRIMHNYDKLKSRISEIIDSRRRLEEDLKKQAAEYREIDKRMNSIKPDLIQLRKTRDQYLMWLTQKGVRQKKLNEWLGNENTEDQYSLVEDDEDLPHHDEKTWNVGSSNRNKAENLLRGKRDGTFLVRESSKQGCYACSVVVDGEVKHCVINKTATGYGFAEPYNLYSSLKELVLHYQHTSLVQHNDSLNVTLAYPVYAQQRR
In short: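 p110δ/p85α (4 nM) phosphorylated 20 μM PIP2 with 20 μM ATP plus [γ-33P]ATP in 20 mM MOPS pH 6.7, 10 mM MgCl2, 5 mM DTT, 0.03% CHAPS, 0.5% DMSO, 210 min at room temperature. EDTA quench, WGA SPA bead capture, scintillation counting; IC50 from log-concentration fit.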

| Compound | IC50 [1] | IC50 (PI3Kδ (p110δ/p85α)) |
| --- | --- | --- |
| COc1ccc(-c2c(C)c(Cl)cc(C(C)Nc3ncnc4[nH]cnc34)c2OC)cc1OC (centres unmarked) [Example 96, N-[1-(5-chloro-2,3′,4′-trimethoxy-6-methylbiphenyl-3-yl)ethyl]-9H-purin-6-amine] | < 100 nM | < 50 nM |
| Cc1c(Cl)cc(C(C)Nc2ncnc3[nH]cnc23)c(-c2cccc(F)c2)c1-n1cnnc1 (centres unmarked) [Example 11, N-{1-[4-chloro-3′-fluoro-5-methyl-6-(4H-1,2,4-triazol-4-yl)biphenyl-2-yl]ethyl}-9H-purin-6-amine] | < 100 nM | < 50 nM |
| CCOc1cccc(-c2c(C)c(Cl)cc(C(C)Nc3ncnc4[nH]cnc34)c2OC)c1 (centres unmarked) [Example 91, N-[1-(5-chloro-3′-ethoxy-2-methoxy-6-methylbiphenyl-3-yl)ethyl]-9H-purin-6-amine] | > 1000 nM | 50 to 100 nM |
| COc1c(C(C)Nc2ncnc3[nH]cnc23)cc(Cl)c(C)c1-c1cccc(Cl)c1 (centres unmarked) [Example 35, N-[1-(3′,5-dichloro-2-methoxy-6-methylbiphenyl-3-yl)ethyl]-9H-purin-6-amine] | > 1000 nM | 50 to 100 nM |
| Cc1c(Cl)cc(C(C)Nc2ncnc3[nH]cnc23)c(-c2cccc(F)c2)c1-c1nnn[nH]1 (centres unmarked) [Example 8, N-{1-[4-chloro-3′-fluoro-5-methyl-6-(1H-tetrazol-5-yl)biphenyl-2-yl]ethyl}-9H-purin-6-amine] | > 1000 nM | < 50 nM |
| Cc1c(Cl)cc(C(C)Nc2ncnc3[nH]cnc23)c(-c2cc(F)cc(F)c2)c1-c1ccc(C#N)cc1 (centres unmarked) [Example 79, 5′-chloro-3″,5″-difluoro-6′-methyl-3′-[1-(9H-purin-6-ylamino)ethyl]-1,1′:2′,1″-terphenyl-4-carbonitrile] | 100 to 500 nM | 100 to 250 nM |
| Cc1c(Cl)cc(C(C)Nc2ncnc3[nH]cnc23)c(-c2cc(F)cc(F)c2)c1-c1cn[nH]c1 (centres unmarked) [Example 106, N-{1-[4-Chloro-3′,5′-difluoro-5-methyl-6-(1H-pyrazol-4-yl)biphenyl-2-yl]ethyl}-9H-purin-6-amine] | < 100 nM | < 50 nM |
| COc1c(C(C)Nc2ncnc3[nH]cnc23)cc(Cl)c(C)c1-c1cnn(C2CCNCC2)c1 (centres unmarked) [Example 174, N-{1-[5-chloro-2-methoxy-4-methyl-3-(1-piperidin-4-yl-1H-pyrazol-4-yl)phenyl]ethyl}-9H-purin-6-amine tris(trifluoroacetate)] | < 100 nM | < 50 nM |
| COc1ccc(-c2c(C)c(Cl)cc(C(C)Nc3ncnc4[nH]cnc34)c2OC)cc1Cl (centres unmarked) [Example 97, N-[1-(3′,5-dichloro-2,4′-dimethoxy-6-methylbiphenyl-3-yl)ethyl]-9H-purin-6-amine] | 100 to 500 nM | 50 to 100 nM |
| Cc1c(Cl)cc(C(C)Nc2ncnc3[nH]cnc23)c(-c2cccc(F)c2)c1[N+](=O)[O-] (centres unmarked) [Example 3, N-[1-(4-chloro-3′-fluoro-5-methyl-6-nitrobiphenyl-2-yl)ethyl]-9H-purin-6-amine] | > 1000 nM | 100 to 250 nM |
| COc1c(C(C)Nc2ncnc3[nH]cnc23)cc(Cl)c(Cl)c1C1CN(CCC(F)(F)F)C1 (centres unmarked) [Example 205, N-(1-{4,5-Dichloro-2-methoxy-3-[1-(3,3,3-trifluoropropyl)azetidin-3-yl]phenyl}ethyl)-9H-purin-6-amine] | < 100 nM | < 50 nM |
| COc1c(C(C)Nc2ncnc3[nH]cnc23)cc(Cl)c(C)c1C1CN(C(C)C)C1 (centres unmarked) [Example 170, N-{1-[5-Chloro-3-(1-isopropylazetidin-3-yl)-2-methoxy-4-methylphenyl]ethyl}-9H-purin-6-amine bis(trifluoroacetate)] | < 100 nM | < 50 nM |
| COCc1ccc(-c2c(C)c(Cl)cc(C(C)Nc3ncnc4[nH]cnc34)c2OC)cc1 (centres unmarked) [Example 42, N-{1-[5-chloro-2-methoxy-4′-(methoxymethyl)-6-methylbiphenyl-3-yl]ethyl}-9H-purin-6-amine] | 100 to 500 nM | < 50 nM |
| COc1c(C(C)Nc2ncnc3[nH]cnc23)cc(Cl)c(Cl)c1C1CN(C(C)C)C1 (centres unmarked) [Example 194, N-{1-[4,5-Dichloro-3-(1-isopropylazetidin-3-yl)-2-methoxyphenyl]ethyl}-9H-purin-6-amine bis(trifluoroacetate)] | < 100 nM | < 50 nM |
| Cc1c(Cl)cc(C(C)Nc2ncnc3[nH]cnc23)c(-c2cc(F)cc(F)c2)c1N1CCCC1=O (centres unmarked) [Example 6, 1-{4-Chloro-3′,5′-difluoro-3-methyl-6-[1-(9H-purin-6-ylamino)ethyl]biphenyl-2-yl}pyrrolidin-2-one trifluoroacetate] | < 100 nM | < 50 nM |
| COc1c(C(C)Nc2ncnc3[nH]cnc23)cc(Cl)c(C)c1-c1cncc(C(=O)N2CCOCC2)c1 (centres unmarked) [Example 111, N-(1-{5-chloro-2-methoxy-4-methyl-3-[5-(morpholin-4-ylcarbonyl)pyridin-3-yl]phenyl}ethyl)-9H-purin-6-amine] | < 100 nM | < 50 nM |

| Compound | IC50 [1] | IC50 (PI3Kδ (p110δ/p85α)) |
| --- | --- | --- |
| COc1ccc(-c2c(C)c(Cl)cc(C(C)Nc3ncnc4[nH]cnc34)c2OC)cn1 (centres unmarked) [Example 52, N-{1-[5-chloro-2-methoxy-3-(6-methoxypyridin-3-yl)-4-methylphenyl]ethyl}-9H-purin-6-amine] | < 100 nM | < 50 nM |
| COc1c(C(C)Nc2ncnc3[nH]cnc23)cc(Cl)c(C)c1-c1ccnc(F)c1 (centres unmarked) [Example 84, N-{1-[5-chloro-3-(2-fluoropyridin-4-yl)-2-methoxy-4-methylphenyl]ethyl}-9H-purin-6-amine] | < 100 nM | < 50 nM |
| COc1c(C(C)Nc2ncnc3[nH]cnc23)cc(Cl)c(C)c1-c1ccc(C#N)cc1 (centres unmarked) [Example 30, 3′-chloro-6′-methoxy-2′-methyl-5′[1-(9H-purin-6-ylamino)ethyl]biphenyl-4-carbonitrile] | 100 to 500 nM | < 50 nM |
| Cc1c(Cl)cc(C(C)Nc2ncnc3[nH]cnc23)c(-c2ccccc2)c1-c1ccc(C(=O)NC2CC2)cc1 (centres unmarked) [Example 16, 5′-chloro-N-cyclopropyl-6′-methyl-3′-[1-(9H-purin-6-ylamino)ethyl]-1,1′:2′,1″-terphenyl-4-carboxamide] | < 100 nM | < 50 nM |
| COc1ncc(-c2c(C)c(Cl)cc(C(C)Nc3ncnc4[nH]cnc34)c2OC)cn1 (centres unmarked) [Example 23, N-{1-[5-chloro-2-methoxy-3-(2-methoxypyrimidin-5-yl)-4-methylphenyl]ethyl}-9H-purin-6-amine] | < 100 nM | < 50 nM |
| Cc1c(Cl)cc(C(C)Nc2ncnc3[nH]cnc23)c(-c2cccc(F)c2)c1-c1cn[nH]c1 (centres unmarked) [Example 72, N-{1-[4-Chloro-3′-fluoro-5-methyl-6-(1H-pyrazol-4-yl)biphenyl-2-yl]ethyl}-9H-purin-6-amine trifluoroacetate] | < 100 nM | < 50 nM |
| Cc1c(Cl)cc(C(C)Nc2ncnc3[nH]cnc23)c(-c2ccccc2)c1-c1cnc(N(C)C)nc1 (centres unmarked) [Example 15, N-(1-{4-chloro-6-[2-(dimethylamino)pyrimidin-5-yl]-5-methylbiphenyl-2-yl}ethyl)-9H-purin-6-amine] | < 100 nM | < 50 nM |
| COc1c(C(C)Nc2ncnc3[nH]cnc23)cc(Cl)c(Cl)c1C1CN(C2CCOC2)C1 (centres unmarked) [Example 197, N-(1-{4,5-Dichloro-2-methoxy-3-[1-(tetrahydrofuran-3-yl)azetidin-3-yl]phenyl}ethyl)-9H-purin-6-amine bistrifluoroacetate] | < 100 nM | < 50 nM |
| COc1c(C(C)Nc2ncnc3[nH]cnc23)cc(Cl)c(Cl)c1C1CN(CC2CCOC2)C1 (centres unmarked) [Example 202, N-(1-{4,5-dichloro-2-methoxy-3-[1-(tetrahydrofuran-3-ylmethyl)azetidin-3-yl]phenyl}ethyl)-9H-purin-6-amine] | < 100 nM | < 50 nM |
| COc1c(C(C)Nc2ncnc3[nH]cnc23)cc(Cl)c(C)c1-c1ccnc(N2CCOCC2)c1F (centres unmarked) [Example 49, N-{1-[5-chloro-3-(3-fluoro-2-morpholin-4-ylpyridin-4-yl)-2-methoxy-4-methylphenyl]ethyl}-9H-purin-6-amine] | < 100 nM | < 50 nM |
| COc1c(C(C)Nc2ncnc3[nH]cnc23)cc(Cl)c(C)c1-c1ccnn1C (centres unmarked) [Example 21, N-{1-[5-chloro-2-methoxy-4-methyl-3-(1-methyl-1H-pyrazol-5-yl)phenyl]ethyl}-9H-purin-6-amine] | < 100 nM | < 50 nM |
| COc1c(C(C)Nc2ncnc3[nH]cnc23)cc(Cl)c(Cl)c1C1CN(Cc2cscn2)C1 (centres unmarked) [Example 204, N-(1-{4,5-Dichloro-2-methoxy-3-[1-(1,3-thiazol-4-ylmethyl)azetidin-3-yl]phenyl}ethyl)-9H-purin-6-amine] | < 100 nM | < 50 nM |
| COc1c(C(C)Nc2ncnc3[nH]cnc23)cc(Cl)c(Cl)c1C1CN(C(C)CO)C1 (stereo not drawn) [Example 208, 2-(3-{2,3-Dichloro-6-methoxy-5-[1-(9H-purin-6-ylamino)ethyl]phenyl}azetidin-l-yl)propan-1-ol bistrifluoroacetate] | < 100 nM | < 50 nM |
| COc1c(C(C)Nc2ncnc3[nH]cnc23)cc(Cl)c(C)c1-c1ccc(C(=O)NC2CC2)cc1 (centres unmarked) [Example 31, 3′-chloro-N-cyclopropyl-6′-methoxy-2′-methyl-5′-[1-(9H-purin-6-ylamino)ethyl]biphenyl-4-carboxamide] | < 100 nM | < 50 nM |
| CC(=O)Nc1c(C)c(Cl)cc(C(C)Nc2ncnc3[nH]cnc23)c1-c1cccc(F)c1 (centres unmarked) [Example 9, N-{4-chloro-3′-fluoro-3-methyl-6-[1-(9H-purin-6-ylamino)ethyl]biphenyl-2-yl}acetamide] | 100 to 500 nM | 50 to 100 nM |
